The values below come from publication PMC10707724, “Dual Effects of 3-epi-betulin from Daphniphyllum glaucescens in Suppressing SARS-CoV-2-Induced Inflammation and Inhibiting Virus Entry” (International Journal of Molecular Sciences, 2023).

Data set [1] deals with SARS-CoV-2 virus spike binding to ACE2. To be noted: by computational screening; cited from earlier work.
A further data set deals with spike protein. To be noted: cited from earlier work.
The subject of a further data set is SARS-CoV-2 Gamma (P1). Description: microbe, parasite or virus in culture. The format is cell-based. To be noted: Severe acute respiratory syndrome coronavirus 2, Vero C1008, Gamma (P1).
For data set [2], the system named is SARS-CoV-2 Eplison (B.1.429). Description: microbe, parasite or virus in culture. The format is cell-based. Particulars: Severe acute respiratory syndrome coronavirus 2, Vero C1008, Eplison (B.1.429).
Data set [3] concerns SARS-CoV-2 Omicron (BA.1). As to the kind of experiment: microbe, parasite or virus in culture. The class given is cell-based. Particulars: Severe acute respiratory syndrome coronavirus 2, Vero C1008.
Data set [4] deals with SARS-CoV-2 Alpha (B.1.1.7). As to the kind of experiment: microbe, parasite or virus in culture. The format is cell-based. To be noted: Severe acute respiratory syndrome coronavirus 2, Vero C1008, Alpha (B.1.1.7).
Data set [5] relates to SARS-CoV-2 (hCoV-19/Taiwan/NTU49/2020). The format is cell-based. To be noted: Calu-3, 10 μM for 24 h after infection.
In data set [6] the test system is pro-inflammatory genes, IL6 and TNF, in Calu-3 cells. The class given is cell-based.
Data set [7] deals with SARS-CoV-2 (hCoV-19/Taiwan/NTU49/2020). As to the kind of experiment: microbe, parasite or virus in culture. The class given is cell-based.
In the next data set the test system is SARS-CoV-2 pseudoviruses. The class given is cell-based. Particulars: pseudovirus pre-treated with compound 37 °C 1 h, BHK-ACE2 48 h, luciferase.
The next data set relates to BHK-ACE2 cells. Particulars: BHK-ACE2, 48 h, MTS.
Data set [8] has as its system wild-type SARS-CoV-2 pseudovirus SEMpv. As to the kind of experiment: microbe, parasite or virus in culture. The format is cell-based. Particulars: Severe acute respiratory syndrome-related coronavirus, BHK-ACE2, 48 h, read-out: EC50, pseudovirus entry.
A further data set deals with SARS-CoV-2 replicon. As to the kind of experiment: microbe, parasite or virus in culture. Particulars: Severe acute respiratory syndrome coronavirus 2, HEK-293T, read-out: EC50, replication of SARS-CoV-2 replicon (luciferase activity). The class given is cell-based. On the technique in general: In antiviral work, replicon cells carry a viral genome segment that copies itself.

For the next data set, the system named is VSV-pseudovirus (Gpv). The format is cell-based.
The subject of data set [9] is SARS-CoV-2 Delta (B.1.617.2). Description: microbe, parasite or virus in culture. The class given is cell-based. To be noted: Severe acute respiratory syndrome coronavirus 2, Vero C1008, Delta (B.1.617.2).
Data set [10] relates to pro-inflammatory genes (IL1B, IL6) in differentiated THP-1 cells. The class given is cell-based.
In data set [11] the test system is wild-type SARS-CoV-2 pseudovirus Spv. As to the kind of experiment: microbe, parasite or virus in culture. The class given is cell-based. Particulars: Severe acute respiratory syndrome-related coronavirus, BHK-ACE2, 48 h, read-out: EC50, pseudovirus entry.
Where [12] appears, read: compound given after pseudovirus infection, 16 h (time-of-addition study).

Each structure is given as a SMILES string. A value given as a limit tells only on which side of the number the result lay.

In the case of `C=C(C)[C@@H]1CC[C@]2(C(=O)O)CC[C@]3(C)[C@H](CC[C@@H]4[C@@]5(C)CC[C@H](O)C(C)(C)[C@@H]5CC[C@]43C)[C@@H]12` [Betulinic acid], the “inhibition of spike binding to ACE2 through the RBD domain” value in data set [1] is listed as “inhibit SARS-CoV-2 virus spike binding to ACE2”.
For the compound `C=C(C)[C@@H]1CC[C@]2(CO)CC[C@]3(C)[C@H](CC[C@@H]4[C@@]5(C)CC[C@H](O)C(C)(C)[C@@H]5CC[C@]43C)[C@@H]12` [Compound 7, Betulin], the “ability to bind to the spike protein” value with spike protein is on record as “ability to bind to the spike protein”.
For the compound `C=C(C)[C@@H]1CC[C@]2(CO)CC[C@]3(C)[C@H](CC[C@@H]4[C@@]5(C)CC[C@@H](O)C(C)(C)[C@@H]5CC[C@]43C)[C@@H]12` [Compound 5, 3-epi-Betulin], the 50% effective concentration (EC50) (commonly the concentration giving half of the maximal effect) is 3.27 µM in the data set on SARS-CoV-2 Gamma (P1); 12.9 µM in data set [2]; 14.5 ± 3.9 µM in [3]; 10.3 µM in [4]; less than 20 µM in data set [7] (Severe acute respiratory syndrome coronavirus 2, Calu-3 lung epithelial cells, read-out: EC50, SARS-CoV-2 infection); 14.6 µM in [8]. Besides, the EC50 with SARS-CoV-2 replicon turned out to be 11.7 ± 0.4 µM; in [9] it was 3.09 µM; in [11], 16.3 µM. Moreover, the “minus-stranded viral RNA decrease” value in [5] is on record as 51.7%. The “plus-stranded viral RNA reduction” value in data set [5] amounted to 73.8%. In data set [5] (RT-qPCR), the “culture supernatant viral load decrease” value was determined as 61.4%. In addition, the plaque formation decline in data set [5] (plaque assay of supernatant) turned out to be 51.5%. The compound also came in with an IL6 expression decrease in [6] of 66.6%. The compound further came in with a TNF expression decrease in [6] of 46.0%. Also, the “intracellular viral RNA decrease” value in data set [7] (virus pre-incubated with 20 μM, Calu-3, 24 h) is listed as 45.6%. Besides, in data set [7] (virus pre-incubated with 20 μM, Calu-3, 24 h, plaque assay), the “infectious virus titer decrease” value is recorded as 66.3%. Moreover, the “inhibitory activity for virus entry” value in the data set on SARS-CoV-2 pseudoviruses is recorded as “highest inhibitory activity”. The cytotoxicity entry in the data set on BHK-ACE2 cells was “no cytotoxicity”. The “inhibitory activity against control VSV-pseudovirus” value with VSV-pseudovirus (Gpv) is given as “no inhibitory activity”. In addition, the “decrease in IL1B expression” value in data set [10] (setting [12]) stood at 69.5%. The “decrease in IL6 expression” value in data set [10] (setting [12]) was 82.9%. Besides, the “expression of pro-inflammatory genes, pre-inoculation” value in data set [10] (compound mixed with pseudovirus 1 h before infecting differentiated THP-1 cells) is reported as “remained unchanged”. Further, the “expression of pro-inflammatory genes, pre-treatment” value in data set [10] (compound on differentiated THP-1 cells 1 h before pseudovirus infection) is given as “remained unchanged”. Further, in [10] (differentiated THP-1 infected with SEMpv, then compound for 16 h), the “IL1B RNA level decrease” value is 47.3%.
